Reference: ChEMBL document CHEMBL3576768, “α-Glucosidase Inhibitors from a Xylaria feejeensis Associated with Hintonia latiflora” (J Nat Prod, 2015)

How the values were obtained:
Saccharomyces cerevisiae = experiment: (§1) Inhibition of Saccharomyces cerevisiae alpha-glucosidase using pNPG as substrate preincubated for 10 mins followed by substrate addition measured after 20 mins by spectrophotometric analysis
[1] = as §1

Structure (SMILES) | inhibition (Saccharomyces cerevisiae) | IC50 [1] [µM]
C[C@@H]1OC(=O)c2c(O)cccc2[C@H]1O | Dose-dependent effect | 441
C[C@H]1O[C@H](O[C@H]2[C@H](O)[C@@H](O)[C@@H](O[C@H]3[C@H](O)[C@@H](O)C(O)O[C@@H]3CO)O[C@@H]2CO)[C@H](O)[C@@H](O)[C@@H]1N[C@H]1C=C(CO)[C@@H](O)[C@H](O)[C@H]1O (stereo not given in full) [ACARBOSE] |  | 545
C[C@@H]1OC(=O)c2c(O)cccc2[C@@H]1O | Dose-dependent effect | 549
